Data reported in US20100226917A1, “METHODS FOR THE TREATMENT OF HEMATOLOGIC MALIGNANCIES” (AstraZeneca AB, priority 2007, published 2010).
Blank lines part the entries; values can stand above or below the compound they belong to.

Tests used:
[1] = tested on: tumor cells isolated from CLL patients; experiment: Ex vivo cell viability (Cell Titer-Glo) of mononuclear cells isolated from CLL patient blood; format: cell-based, human; details: 48 hour treatment; for IC50: Homo sapiens
Experimental: Blood samples (10 mls) were collected from CLL patients and placed on ice. Whole blood was then diluted with phosphate buffered saline (PBS) (2-3 fold dilution) and carefully layered over 12 mls Ficoll-paque (GE Healthcare, Westborough, Mass.) in a 50 ml conical tube. Samples were then centrifuged at 3500 rpm for 35 minutes without break at room temperature. Plasma was removed and opaque interphase containing mononuclear cells was collected and placed into a clean conical centrifuge tube. Cells were then washed twice with PBS with 1% fetal bovine serum (FBS). Following final wash, cells were resuspended in 5˜10 mls RPMI 1640 (Invitrogen, Grand Island, N.Y.) plus 10% fetal calf serum (FCS) medium. Cells were then counted by Trypan blue exclusion method and viability and purity assessed.
Cells were then plated into 96 well plates (1×10^5 cells/well) and incubated overnight in a drug free medium. The next morning cells were treated with fludarabine (1, 3 and 10 μM), gemcitabine (0.1 and 1 μM), CHK1 inhibitor of Formula 1.1 (0.01, 0.1 and 0.5 μM) or the combination of fludarabine and CHK1 inhibitor or gemcitabine and CHK1 inhibitor. […] Following 48 hour treatment, cell viability was measured using Cell Titer-Glo® luminescent cell viability assay (Promega, Madison, Wis.).

[2] = tested on: Mec1 chronic B cell leukemia cell line; experiment: Cell Titer-Glo luminescent cell viability assay, Mec1 cell line; format: cell-based; details: Homo sapiens; Mec1, 48 hour treatment
Experimental: (§1) Chronic B cell leukemia cell lines (JVM2 and Mec1) (American Type Culture Collection (ATCC), Manassas, Va.) were plated in 96 well plates and 24 hours later were treated with increasing concentrations of a CHK1 inhibitor (Formula 1.1). Following 48 hour treatment cell viability was measured using Cell Titer-Glo® luminescent cell viability assay (Promega, Madison, Wis.).

[3] = tested on: JVM2 chronic B cell leukemia cell line; experiment: Cell Titer-Glo luminescent cell viability assay, JVM2 cell line; format: cell-based; details: Homo sapiens, JVM-2; JVM2, 48 hour treatment
Experimental: as §1

[4] = tested on: marrow mononuclear cells from patients with acute myelogenous leukemia; experiment: Colony formation of AML patient marrow mononuclear cells in methylcellulose; format: cell-based, human; details: 30-300 nM, 48-hour incubation, colonies scored after 14 days, 9 AML patient samples
Experimental: Marrow mononuclear cells from 9 patients with acute myelogenous leukemia were isolated by sedimentation on Ficoll-Hypaque density gradients (English et al. Single-Step Separation of Red Blood Cells. Granulocytes and Mononuclear Leukocytes on Discontinuous Density Gradients of Ficoll-Hypaque. Journal of Immunological Methods, 5: 249-252, 1974). After removal of an aliquot for staining to determine the percentage of blasts, replicate aliquots containing 1×10^6 cells in 1 ml Improved Dulbecco's Medium containing 20% heat-inactivated fetal bovine serum, 50 units/ml penicillin G, 50 μg/ml streptomycin and 2 mM glutamine (medium A) were treated with diluent (0.2% dimethyl sulfoxide), increasing concentrations of cytarabine alone (25-300 nM), increasing concentrations of a CHK-1 inhibitor (formula 1.1) (30-300 nM), or increasing concentrations of cytarabine in the presence of 100 nM of a CHK-1 inhibitor (Formula 1.1). […] Following a 14-day incubation at 37° C., colonies containing ≧50 cells were scored on an inverted microscope using established criteria (Eaves, C. and Lambie, K. Atlas of human hematopoietic colonies. Vancouver: StemCell Technologies Inc., 1995). […]

CD20 antigen = target: T1, CD20 antigen (Homo sapiens, UniProt P11836); details: read-out: binding affinity; cited from earlier work
T1 sequence (P11836 1-297): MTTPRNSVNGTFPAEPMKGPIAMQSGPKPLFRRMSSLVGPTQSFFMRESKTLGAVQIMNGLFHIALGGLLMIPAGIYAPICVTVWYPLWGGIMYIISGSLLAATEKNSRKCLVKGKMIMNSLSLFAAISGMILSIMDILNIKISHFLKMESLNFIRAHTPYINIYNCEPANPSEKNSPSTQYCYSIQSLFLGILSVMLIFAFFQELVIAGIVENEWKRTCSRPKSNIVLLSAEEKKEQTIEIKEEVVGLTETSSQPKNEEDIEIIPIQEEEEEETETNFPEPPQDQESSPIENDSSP

[5] = relapsed patient who one week prior received rituximab treatment
[6] = newly diagnosed patient who had not received previous treatment

- IC50 [1, 5]: 11 nM
- GI50 [2]: 79 nM
- GI50 [3]: 13 nM
Compound: NC(=O)Nc1cc(-c2cccc(F)c2)sc1C(=O)N[C@H]1CCCNC1 [Formula 1.1, 5-(3-Fluoro-phenyl)-3-ureido-thiophene-2-carboxylic acid (S)-piperidin-3-ylamide]
- response (cell viability) [1, 6]: not
- samples showing single agent sensitivity [4]: Four out of nine samples

Compound: Nc1nc(F)nc2c1ncn2[C@@H]1O[C@H](CO)[C@@H](O)[C@@H]1O [fludarabine]
- IC50 [1, 6]: 560 nM
- IC50 [1, 5]: 5100 nM

Compound: Nc1ccn([C@@H]2O[C@H](CO)[C@@H](O)C2(F)F)c(=O)n1 [gemcitabine]
- response (cell viability) [1, 6]: not
- response (cell viability) [1, 5]: not

Compound: rituximab
- Kd (CD20 antigen): ~8 nM
